# Laboratory results: US9427415B2, “Methods and compositions for modifying sensorial perception” (The Procter & Gamble Company, priority 2014, dated 2016)
# Structures can show the parent of a compound that is named as a salt. Where two headings read alike, the source gives them in different places.
# What was measured:
# TRPA1V1 = experiment: Intracellular calcium (Fluo-4, FLIPR) activation of TRPA1V1 cells (co-expressing TRPA1 and TRPV1) by GRAS compounds; format: cell-based, human; settings: relative to AITC 30 μM;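 further: HEK293 cells co-expressing TRPA1 and TRPV1, fluorescence read at 488/514 nm after baseline subtraction, recorded every 2 s over 10 min, ionomycin 10 µM and buffer as controls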
# human TRPA1 = biological target: T1, human TRPA1 (Homo sapiens, UniProt O75762, K186N/R3C/R58T); experiment: Intracellular calcium (Fluo-4, FLIPR) activation of TRPA1 cells by GRAS compounds; format: cell-based; settings: for activation at 1000 µM / activation at 100 µM: read-out: A1 activation, % of agonist value;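 on all read-outs here: TRPA1-expressing cells, fluorescence read on a FLIPR Tetra (ex 488 nm, em 514 nm) every 2 s for 10 min after compound addition, baseline subtracted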
# T1 construct: expressed in transfected cells; pcDNA3 control cells
# T1 sequence (O75762 whole entry R3C/R58T/K186N): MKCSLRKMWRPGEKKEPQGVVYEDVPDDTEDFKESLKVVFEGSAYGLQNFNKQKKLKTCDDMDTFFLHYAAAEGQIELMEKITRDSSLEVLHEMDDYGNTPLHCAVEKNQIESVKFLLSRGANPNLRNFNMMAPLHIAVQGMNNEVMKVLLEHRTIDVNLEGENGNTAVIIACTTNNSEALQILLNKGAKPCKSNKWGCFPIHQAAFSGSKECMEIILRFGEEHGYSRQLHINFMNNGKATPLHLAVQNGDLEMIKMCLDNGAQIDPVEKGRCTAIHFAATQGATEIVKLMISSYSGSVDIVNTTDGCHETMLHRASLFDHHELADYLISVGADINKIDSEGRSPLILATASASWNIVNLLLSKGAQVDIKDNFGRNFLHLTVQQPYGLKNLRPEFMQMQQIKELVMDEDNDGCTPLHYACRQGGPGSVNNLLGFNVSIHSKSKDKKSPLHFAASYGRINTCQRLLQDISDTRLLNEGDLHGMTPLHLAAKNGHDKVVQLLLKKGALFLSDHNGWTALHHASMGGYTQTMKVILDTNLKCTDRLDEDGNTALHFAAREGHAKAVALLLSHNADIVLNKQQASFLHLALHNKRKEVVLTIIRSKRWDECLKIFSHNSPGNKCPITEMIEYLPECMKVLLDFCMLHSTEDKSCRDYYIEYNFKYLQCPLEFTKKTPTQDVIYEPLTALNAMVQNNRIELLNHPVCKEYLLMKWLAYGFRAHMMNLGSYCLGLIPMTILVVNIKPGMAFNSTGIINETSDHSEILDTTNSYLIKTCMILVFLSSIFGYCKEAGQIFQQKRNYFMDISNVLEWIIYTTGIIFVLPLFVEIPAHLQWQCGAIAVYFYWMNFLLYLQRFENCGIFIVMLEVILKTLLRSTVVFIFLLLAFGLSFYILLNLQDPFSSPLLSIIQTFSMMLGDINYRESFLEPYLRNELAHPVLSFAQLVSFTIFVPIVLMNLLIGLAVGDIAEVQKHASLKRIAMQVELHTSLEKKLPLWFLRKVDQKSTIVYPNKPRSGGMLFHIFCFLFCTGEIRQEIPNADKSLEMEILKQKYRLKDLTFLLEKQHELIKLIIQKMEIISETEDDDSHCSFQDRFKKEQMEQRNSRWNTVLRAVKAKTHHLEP
# [1] = Table 1(e), 1 mM, relative to AITC 30 μM
# [2] = Table 1(d), 1 mM, relative to AITC 30 μM
# [3] = Table 1(c), 1 mM, relative to AITC 30 μM
# [4] = Table 1(c), relative to AITC 30 μM
smiles,measurement,setting,value
CC(C)CC=C(C=O)c1ccccc1 [5-Methy1-2-pheny1-2-hexenal],"A1V1 activation, % of agonist value","TRPA1V1; Table 1(e), 1 mM",89.8%
same,"A1 activation, % of agonist value",human TRPA1; [1],60.5%
COc1ccc2ncccc2c1 [6-Methoxyquinoline],"A1V1 activation, % of agonist value","TRPA1V1; Table 1(e), 1 mM",130.5%
same,activation at 1000 µM,human TRPA1; [1],57.8%
C=CCCCCCCCCC=O [10-Undecenal],"A1V1 activation, % of agonist value","TRPA1V1; Table 1(d), 1 mM",28%
same,activation at 1000 µM,human TRPA1; [2],61.8%
CCCCCCCC/C=C/C=O [(2E)-Undecenal],"A1V1 activation, % of agonist value","TRPA1V1; Table 1(c), 1 mM",48.8%
same,"A1 activation, % of agonist value",human TRPA1; [3],59.6%
CCCC/C=C/C=O [(E)-2-Heptenal],"A1V1 activation, % of agonist value","TRPA1V1; Table 1(c), 1 mM",96.6%
same,activation at 1000 µM,human TRPA1; [3],112%
"CCCCC/C=C/C=C/C=O [(E,E)-2,4-Decadienal]","A1V1 activation, % of agonist value","TRPA1V1; Table 1(d), 1 mM",46%
same,activation at 1000 µM,human TRPA1; [2],142%
"CCCCCCC/C=C/C=C/C=O [(E,E)-2,4-Dodecadienal]","A1V1 activation, % of agonist value","TRPA1V1; Table 1(d), 1 mM",55.4%
same,activation at 1000 µM,human TRPA1; [2],159%
"C/C=C/C=C/C=O [(E,E)-2,4-Hexadienal]","A1V1 activation, % of agonist value","TRPA1V1; Table 1(c), 1 mM",108.71%
same,activation at 1000 µM,human TRPA1; [3],92%
"CC/C=C/CC/C=C/C=O [(E,E)-2,6-Nonadienal]","A1V1 activation, % of agonist value","TRPA1V1; Table 1(c), 1 mM",89.61%
same,activation at 1000 µM,human TRPA1; [3],87.1%
"CC/C=C/C=C/CO [(E,E)-Hepta-2,4-dien-1-ol]","A1V1 activation, % of agonist value","TRPA1V1; Table 1(c), 1 mM",133.3%
same,activation at 1000 µM,human TRPA1; [3],146%
CC(C)=CCC[C@](C)(O)[C@@H]1CC=C(C)CC1 [(−)-Alpha-Bisabolol],"A1V1 activation, % of agonist value","TRPA1V1; Table 1(c), 1 mM",83.53%
same,"A1 activation, % of agonist value",human TRPA1; [3],71.26%
"CCCOC(C)OCCc1ccccc1 (centres unmarked) [Acetaldehyde, phenethyl propyl acetal]","A1V1 activation, % of agonist value","TRPA1V1; Table 1(d), 1 mM",62.2%
same,"A1 activation, % of agonist value",human TRPA1; [2],86.4%
C=CCOC(=O)c1ccccc1N [Allyl anthranilate],"A1V1 activation, % of agonist value","TRPA1V1; Table 1(c), 1 mM",75.03%
same,activation at 1000 µM,human TRPA1; [3],73.8%
C=CCOC(=O)Cc1ccccc1 [Allyl phenylacetate],"A1V1 activation, % of agonist value","TRPA1V1; Table 1(c), 1 mM",84.14%
same,activation at 1000 µM,human TRPA1; [3],86.2%
C=CCCC(=O)/C=C/C1C(C)=CCCC1(C)C (stereo not drawn) [Allyl-alpha-ionone],"A1V1 activation, % of agonist value","TRPA1V1; Table 1(e), 1 mM",89.7%
same,"A1 activation, % of agonist value",human TRPA1; [1],52.6%
COc1ccc(C=C(C)C=O)cc1 [Alpha Methyl-4-methoxycinnamaldehyde],"A1V1 activation, % of agonist value","TRPA1V1; Table 1(e), 1 mM",85.80%
same,activation at 1000 µM,human TRPA1; [1],67.1%
CC(C)CC(O)Cc1ccccc1 (stereo not drawn) [Alpha-Isobutylphenethyl alcohol],"A1V1 activation, % of agonist value","TRPA1V1; Table 1(c), 1 mM",58.62%
same,activation at 1000 µM,human TRPA1; [3],73%
CCCCCOC(=O)c1ccco1 [Amyl furoate],"A1V1 activation, % of agonist value","TRPA1V1; Table 1(c), 1 mM",87.70%
same,"A1 activation, % of agonist value",human TRPA1; [3],81.09%
COc1ccc(COC=O)cc1 [Anisyl formate],"A1V1 activation, % of agonist value","TRPA1V1; Table 1(c), 1 mM",78.2%
same,"A1 activation, % of agonist value",human TRPA1; [3],89.5%
OCc1ccccc1 [Benzenemethanol],"A1V1 activation, % of agonist value","TRPA1V1; Table 1(c), 1 mM",78.47%
same,activation at 1000 µM,human TRPA1; [3],79.6%
O=C(c1ccccc1)C(O)c1ccccc1 (centres unmarked) [Benzoin],"A1V1 activation, % of agonist value","TRPA1V1; Table 1(e), 1 mM",61.81%
same,activation at 1000 µM,human TRPA1; [1],26.2%
O=C(Nc1ccccc1C(=O)O)c1ccccc1 [Benzoylanthranilic acid],"A1V1 activation, % of agonist value","TRPA1V1; Table 1(c), 1 mM",125.6%
same,"A1 activation, % of agonist value",human TRPA1; [3],145.9%
"Cc1ccc(C(C)O)cc1 (stereo not drawn) [Benzyl alcohol, p,alpha-dimethyl-]","A1V1 activation, % of agonist value","TRPA1V1; Table 1(c), 1 mM",71.8%
same,"A1 activation, % of agonist value",human TRPA1; [3],77.2%
CCCC(=O)OCc1ccccc1 [Benzyl butyrate],"A1V1 activation, % of agonist value","TRPA1V1; Table 1(c), 1 mM",64.7%
same,activation at 1000 µM,human TRPA1; [3],70%
CCC(=O)OCc1ccccc1 [Benzyl propionate],"A1V1 activation, % of agonist value","TRPA1V1; Table 1(c), 1 mM",90.7%
same,activation at 1000 µM,human TRPA1; [3],103%
CC(C)=CCC[C@](C)(O)C1CC=C(C)CC1 (some centres unmarked) [Bisabolol],"A1V1 activation, % of agonist value","TRPA1V1; Table 1(c), 1 mM",73.53%
same,activation at 1000 µM,human TRPA1; [3],68%
O=CC=Cc1ccccc1 [Cinnamaldehyde],"A1V1 activation, % of agonist value","TRPA1V1; Table 1(e), 1 mM",77.3%
same,activation at 1000 µM,human TRPA1,51.2%
O=C(O)C=Cc1ccccc1 [Cinnamic acid],"A1V1 activation, % of agonist value","TRPA1V1; Table 1(c), 1 mM",42.5%
same,activation at 1000 µM,human TRPA1; [3],37.7%
CC(=O)OCC=Cc1ccccc1 [Cinnamyl acetate],"A1V1 activation, % of agonist value","TRPA1V1; Table 1(c), 1 mM",89.73%
same,activation at 1000 µM,human TRPA1; [3],85%
OCC=Cc1ccccc1 [Cinnamyl alcohol],"A1V1 activation, % of agonist value","TRPA1V1; Table 1(c), 1 mM",79.4%
same,activation at 1000 µM,human TRPA1,89.8%
CCCCC/C=C\CCO [Cis-3-nonen-1-ol],"A1V1 activation, % of agonist value","TRPA1V1; Table 1(d), 1 mM",41.22%
same,activation at 1000 µM,human TRPA1; [2],55%
COC(C=C(C)CCC=C(C)C)OC [Citral dimethyl acetal],"A1V1 activation, % of agonist value","TRPA1V1; Table 1(e), 1 mM",137.2%
same,activation at 1000 µM,human TRPA1; [1],102%
CC(C)=CCCC(C)=CC=O [Citral],"A1V1 activation, % of agonist value","TRPA1V1; Table 1(c), 1 mM",132.7%
same,activation at 1000 µM,human TRPA1; [3],145%
CCCC(=O)OCCC(C)CCC=C(C)C (centres unmarked) [Citronellyl butyrate],"A1V1 activation, % of agonist value","TRPA1V1; Table 1(c), 100 μM (*)",57.9%
same,activation at 100 µM,human TRPA1; [4],44.9%
CCC(=O)OCCC(C)CCC=C(C)C (centres unmarked) [Citronellyl propionate],"A1V1 activation, % of agonist value","TRPA1V1; Table 1(c), 100 μM (*)",43.2%
same,activation at 100 µM,human TRPA1; [4],52.5%
CC(C=O)Cc1ccc(C(C)C)cc1 (centres unmarked) [Cyclamen aldehyde],"A1V1 activation, % of agonist value","TRPA1V1; Table 1(e), 1 mM",120.9%
same,"A1 activation, % of agonist value",human TRPA1; [1],94.1%
CCCCCCCCCC(=O)O [Decanoic acid],"A1V1 activation, % of agonist value","TRPA1V1; Table 1(c), 1 mM",73.45%
same,activation at 1000 µM,human TRPA1; [3],65.1%
CC(=O)CCC1=C(C)CCCC1(C)C [Dihydro-beta-ionone],"A1V1 activation, % of agonist value","TRPA1V1; Table 1(c), 1 mM",64.07%
same,"A1 activation, % of agonist value",human TRPA1; [3],64.4%
CCOC(=O)C(Cc1ccccc1)C(C)=O (centres unmarked) [Ethyl 2-benzylacetoacetate],"A1V1 activation, % of agonist value","TRPA1V1; Table 1(c), 1 mM",115%
same,activation at 1000 µM,human TRPA1,98%
CCOC(=O)C(C)S (centres unmarked) [Ethyl 2-mercaptopropionate],"A1V1 activation, % of agonist value","TRPA1V1; Table 1(c), 100 μM (*)",70.2%
same,activation at 100 µM,human TRPA1; [4],88.3%
CCCCCC=CC(=O)OCC [Ethyl 2-octenoate],"A1V1 activation, % of agonist value","TRPA1V1; Table 1(c), 1 mM",120%
same,activation at 1000 µM,human TRPA1; [3],128%
CCCCCC(=O)CCCC(=O)OCC [Ethyl 5-oxodecanoate],"A1V1 activation, % of agonist value","TRPA1V1; Table 1(d), 1 mM",28.24%
same,activation at 1000 µM,human TRPA1; [2],51%
CCOC(=O)c1ccccc1 [Ethyl benzoate],"A1V1 activation, % of agonist value","TRPA1V1; Table 1(c), 1 mM",60%
same,activation at 1000 µM,human TRPA1; [3],70%
CCOC(=O)CCc1ccccc1 [Ethyl hydrocinnamate],"A1V1 activation, % of agonist value","TRPA1V1; Table 1(d), 1 mM",50.9%
same,activation at 1000 µM,human TRPA1; [2],72.2%
CCOC(=O)c1ccc(OC)cc1 [Ethyl p-anisate],"A1V1 activation, % of agonist value","TRPA1V1; Table 1(c), 1 mM",93.1%
same,activation at 1000 µM,human TRPA1; [3],91.2%
CCOC(=O)c1ccccc1O [Ethyl salicylate],"A1V1 activation, % of agonist value","TRPA1V1; Table 1(d), 1 mM",28%
same,activation at 1000 µM,human TRPA1; [2],41%
CCOc1cc(C2OCC(C)O2)ccc1O (centres unmarked) [Ethyl vanillin propylene glycol acetal],"A1V1 activation, % of agonist value","TRPA1V1; Table 1(c), 1 mM",72.64%
same,"A1 activation, % of agonist value",human TRPA1; [3],66.41%
C=CC(=O)CC [Ethyl vinyl ketone],"A1V1 activation, % of agonist value","TRPA1V1; Table 1(d), 1 mM",40.61%
same,activation at 1000 µM,human TRPA1; [2],79.5%
C=CCc1ccc(O)c(OC)c1 [Eugenol],"A1V1 activation, % of agonist value","TRPA1V1; Table 1(c), 1 mM",91.29%
same,activation at 1000 µM,human TRPA1; [3],79%
C=CCc1ccc(OC(C)=O)c(OC)c1 [Eugenyl acetate],"A1V1 activation, % of agonist value","TRPA1V1; Table 1(c), 1 mM",83.94%
same,activation at 1000 µM,human TRPA1; [3],75.4%
C=CCc1ccc(OC(=O)CC(C)C)c(OC)c1 [Eugenyl isovalerate],"A1V1 activation, % of agonist value","TRPA1V1; Table 1(e), 1 mM",79.29%
same,activation at 1000 µM,human TRPA1; [1],59.7%
"c1ccc(CCCC2CCCO2)cc1 (centres unmarked) [Furan, tetrahydro-2-(3-phenylpropyl)-]","A1V1 activation, % of agonist value","TRPA1V1; Table 1(e), 1 mM",72.09%
same,activation at 1000 µM,human TRPA1; [1],26%
CC(=O)OCc1ccco1 [Furfuryl acetate],"A1V1 activation, % of agonist value","TRPA1V1; Table 1(d), 1 mM",91.3%
same,activation at 1000 µM,human TRPA1; [2],120%
CC(=O)SCc1ccco1 [Furfurylthiol acetate],"A1V1 activation, % of agonist value","TRPA1V1; Table 1(d), 1 mM",60%
same,"A1 activation, % of agonist value",human TRPA1; [2],75.5%
CCCCCCOC(=O)CCC [Hexyl butyrate],"A1V1 activation, % of agonist value","TRPA1V1; Table 1(e), 1 mM",55.89%
same,activation at 1000 µM,human TRPA1; [1],43.2%
CCCCCCOC(=O)c1cccnc1 [Hexyl nicotinate],"A1V1 activation, % of agonist value","TRPA1V1; Table 1(d), 1 mM",54.4%
same,activation at 1000 µM,human TRPA1; [2],72.9%
CC(=O)OCCC(C)C [Isoamyl acetate],"A1V1 activation, % of agonist value","TRPA1V1; Table 1(c), 1 mM",61.80%
same,activation at 1000 µM,human TRPA1; [3],49.6%
CNc1ccccc1C(=O)OCC(C)C [Isobutyl N-methyl anthranilate],"A1V1 activation, % of agonist value","TRPA1V1; Table 1(d), 1 mM",36.7%
same,"A1 activation, % of agonist value",human TRPA1; [2],59.73%
